Test results: article PMC11247487, “Discovery of Dual MER/AXL Kinase Inhibitors as Bifunctional Small Molecules for Inhibiting Tumor Growth and Enhancing Tumor Immune Microenvironment” (Journal of Medicinal Chemistry, 2024)
Values joined by “and” are separate entries in the source; they are usually repeats but may differ in a detail not shown here. Equal values may be shown once. “Also recorded” adds a separate entry of the source. Read-outs that look alike come from different tables or passages of the source.

Tests used:
[1] = tested on: Hepa1–6 murine liver tumors; assay: Hepa1–6 tumor model; assay type: in vivo, mice; details: 30 mg/kg orally QD, FOTO
Procedure: (§1) All mice were used between 6 and 7 weeks of age. […] Tumor cells were detected as free of Mycoplasma spp prior to injection into animals. […] Tumor growth was measured with an electronic caliper, and volumes were calculated as L × W × W/2. Tumor size and animal body weight were measured once a week after tumor cell inoculation. Tumor growth inhibition (% TGI) = [1 – ΔT/ΔC] × 100, where ΔT is the difference of average tumor volume on the measured day and day 0 of treated groups and ΔC is the difference of average tumor volume on the measured day and day 0 of control groups.

[2] = tested on: 4T1 murine triple-negative breast tumors; assay: 4T1 syngeneic tumor model; assay type: in vivo, mice; details: 50 mg/kg QD, FOTO
Procedure: as §1

[3] = tested on: MC38 murine colon tumor; assay: MC38 syngeneic tumor model; assay type: in vivo, mice
Procedure: as §1

[4] = tested on: MDA-MB-231 human triple-negative breast xenograft tumors; assay: MDA-MB-231 xenograft tumor model; details: 50 mg/kg QD, FOTO
Procedure: as §1

[5] = target: T1, MER (Homo sapiens, UniProt Q12866); assay: MER enzyme inhibition assay (in-house Kinase-Glo); assay type: biochemical
T1 construct: A purified kinase (MER or AXL) was incubated with a compound or DMSO
T1 sequence (Q12866 21-999): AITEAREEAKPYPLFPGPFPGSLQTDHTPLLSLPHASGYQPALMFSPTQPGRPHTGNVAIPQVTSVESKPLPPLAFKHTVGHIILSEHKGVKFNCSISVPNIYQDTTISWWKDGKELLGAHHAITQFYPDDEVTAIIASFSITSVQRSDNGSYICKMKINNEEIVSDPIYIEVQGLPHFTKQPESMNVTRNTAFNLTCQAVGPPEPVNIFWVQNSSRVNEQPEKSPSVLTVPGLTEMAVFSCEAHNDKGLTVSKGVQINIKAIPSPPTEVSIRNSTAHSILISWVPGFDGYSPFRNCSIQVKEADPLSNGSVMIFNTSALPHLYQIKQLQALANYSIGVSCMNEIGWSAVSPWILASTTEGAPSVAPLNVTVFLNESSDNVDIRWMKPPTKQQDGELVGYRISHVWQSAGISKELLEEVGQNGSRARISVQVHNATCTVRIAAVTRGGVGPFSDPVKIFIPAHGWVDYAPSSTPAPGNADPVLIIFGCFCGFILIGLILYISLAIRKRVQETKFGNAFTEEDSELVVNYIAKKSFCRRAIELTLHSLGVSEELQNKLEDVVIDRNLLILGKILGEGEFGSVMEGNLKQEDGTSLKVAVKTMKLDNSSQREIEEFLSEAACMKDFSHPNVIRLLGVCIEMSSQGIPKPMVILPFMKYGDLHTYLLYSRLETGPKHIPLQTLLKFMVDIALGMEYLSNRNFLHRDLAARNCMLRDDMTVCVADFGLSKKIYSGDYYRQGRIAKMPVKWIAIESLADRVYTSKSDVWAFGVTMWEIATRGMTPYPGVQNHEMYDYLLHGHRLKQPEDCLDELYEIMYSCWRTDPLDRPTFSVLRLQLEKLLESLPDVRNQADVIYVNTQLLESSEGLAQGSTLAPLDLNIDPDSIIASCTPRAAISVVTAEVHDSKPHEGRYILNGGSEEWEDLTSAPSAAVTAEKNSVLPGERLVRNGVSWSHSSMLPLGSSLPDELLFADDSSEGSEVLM

[6] = In vivo pharmacokinetics study; details: mice; for clearance at 24 h / half-life at 24 h / Vd at 24 h / bioavailability at 24 h / Tmax at 24 h: male, ICR, mouse, plasma; for clearance at 24 h: read-out: iv CL; for Vd at 24 h: read-out: iv Vss; for iv DNAUC(0–inf) / po DNAUC(0–inf) / po DNCmax: dose-normalized
Procedure: The animal studies were performed according to NHRI institutional animal care and committee-approved procedures. Male ICR mice (25–35 g) were obtained from BioLASCO (Taiwan Co., Ltd., Ilan, Taiwan). […] All samples were analyzed for the parent drug by LC-MS/MS. Plasma concentration data were analyzed with a noncompartmental method.

[7] = tested on: Ba/F3-MER cells; assay: Cell viability assay (MTS); assay type: cell-based; details: 72 h
[8] = In vitro microsomal stability assay; assay type: in vitro ADME; details: 1 μM, mouse liver microsomes, percent remaining at 30 min
Procedure: All incubations were initiated with the addition of NADPH-generating system at 37 °C for 30 min. At 0 and the end of incubation, 100 μL of aliquots were taken from the incubation mixture and placed into centrifuge tubes containing 100 μL of ice-cold acetonitrile to terminate the metabolic reaction. The samples were vortexed and centrifuged, and then, the supernatant injected onto LC/MS. Percent of remaining of each compound was calculated by comparing peak areas at 30 min to that at the initiation of incubation.

[9] = target: T2, AXL (Homo sapiens, UniProt P30530); assay: AXL enzyme inhibition assay (ADP-Glo); assay type: biochemical
T2 construct: A purified kinase (MER or AXL) was incubated with a compound or DMSO
T2 sequence (P30530 26-894): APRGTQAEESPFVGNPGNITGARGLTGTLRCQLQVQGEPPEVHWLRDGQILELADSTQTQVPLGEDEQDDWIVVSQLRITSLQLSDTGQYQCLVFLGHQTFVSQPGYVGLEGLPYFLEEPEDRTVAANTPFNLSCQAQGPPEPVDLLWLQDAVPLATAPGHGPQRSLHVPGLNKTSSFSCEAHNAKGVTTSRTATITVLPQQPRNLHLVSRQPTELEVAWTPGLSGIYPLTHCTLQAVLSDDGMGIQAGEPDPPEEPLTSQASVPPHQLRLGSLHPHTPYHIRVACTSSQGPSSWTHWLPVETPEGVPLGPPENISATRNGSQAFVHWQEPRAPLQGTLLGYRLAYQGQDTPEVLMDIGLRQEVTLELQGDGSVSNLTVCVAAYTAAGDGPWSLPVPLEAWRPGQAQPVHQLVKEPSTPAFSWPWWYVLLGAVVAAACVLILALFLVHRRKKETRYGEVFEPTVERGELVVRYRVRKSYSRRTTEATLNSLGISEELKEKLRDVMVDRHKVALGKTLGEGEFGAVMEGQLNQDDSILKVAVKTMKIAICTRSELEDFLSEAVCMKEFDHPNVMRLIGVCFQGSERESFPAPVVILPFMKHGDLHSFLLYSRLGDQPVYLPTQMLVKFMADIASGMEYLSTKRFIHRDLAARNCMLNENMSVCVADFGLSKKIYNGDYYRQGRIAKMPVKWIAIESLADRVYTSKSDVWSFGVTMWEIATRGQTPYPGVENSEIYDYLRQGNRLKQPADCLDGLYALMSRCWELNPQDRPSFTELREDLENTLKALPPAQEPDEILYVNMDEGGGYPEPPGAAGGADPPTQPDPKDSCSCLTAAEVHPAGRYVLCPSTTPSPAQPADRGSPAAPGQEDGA

SMILES: COc1cc2nccc(Oc3ccc(NC(=O)c4cc5c(n(-c6ccccc6)c4=O)CCCC5=O)nc3)c2cc1OC [Compound 8, tamnorzatinib]
- TGI, % of Vehicle Control [1]: 17% and 16.7 ± 12.0%
- TGI, % of Vehicle Control [2]: 12% and 12.2 ± 3.7%
- TGI, % of Vehicle Control ([3]; 50 mg/kg orally QD, FOTO): 45% and 44.8 ± 4.6%
- TGI, % of Vehicle Control [4]: 9% and 8.7 ± 4.7%
- IC50 [5]: 9.8 nM

SMILES: Cn1cc(-c2oc3ncnc(Oc4ccc(NC(=O)c5cccn(-c6ccc(F)cc6)c5=O)cc4)c3c2-c2cccc(N)c2)cn1 [Compound 22, N-(4-{[5-(3-Aminophenyl)-6-(1-methyl-1H-pyrazol-4-yl)furo[2,3-d]pyrimidin-4-yl]oxy}phenyl)-1-(4-fluorophenyl)-2-oxo-1,2-dihydropyridine-3-carboxamide]
- clearance at 24 h ([6]; iv 3 mg/kg): 2.9 mL/min/kg
- half-life at 24 h ([6]; iv 3 mg/kg, read-out: iv T1/2 (converted)): 6 h
- Vd at 24 h ([6]; iv 3 mg/kg): 1.2 L/kg
- bioavailability at 24 h ([6]; iv and po 3 mg/kg): 19.2%
- Tmax at 24 h ([6]; po 3 mg/kg): 4 h
- half-life at 24 h ([6]; po 3 mg/kg, read-out: po T1/2 (converted)): 3.4 h
- iv DNAUC(0–inf) ([6]; iv 3 mg/kg): 3,985.3 ng × hr/mL
- po DNAUC(0–inf) ([6]; po 3 mg/kg): 764.0 ng·h/mL
- po DNCmax ([6]; po 3 mg/kg): 38.7 ng/mL
- body weight during treatment ([3]; MC38 tumor-bearing mice, 25-50 mg/kg orally, 3 weeks): No significant body weight loss; also recorded: well-tolerated without significant body weight loss

SMILES: CN1CCN(c2cccc(-c3c(-c4cnn(C)c4)oc4ncnc(Oc5ccc(NC(=O)c6cccn(-c7ccc(F)cc7)c6=O)cc5)c34)c2)CC1 [Compound 35, 1-(4-Fluorophenyl)-N-[4-({5-[3-(4-methylpiperazin-1-yl)phenyl]-6-(1-methyl-1H-pyrazol-4-yl)furo[2,3-d]pyrimidin-4-yl}oxy)phenyl]-2-oxo-1,2-dihydropyridine-3-carboxamide]
- IC50 [7]: 7.5 nM
- bioavailability at 24 h ([6]; iv 2 mg/kg, po 10 mg/kg): 14.8%
- clearance at 24 h ([6]; iv 2 mg/kg): 87.1 mL/min/kg
- half-life at 24 h ([6]; iv 2 mg/kg, read-out: iv T1/2 (converted)): 2.4 h
- Vd at 24 h ([6]; iv 2 mg/kg): 7.4 L/kg
- Tmax at 24 h ([6]; po 10 mg/kg): 2.7 h
- half-life at 24 h ([6]; po 10 mg/kg, read-out: po T1/2 (converted)): 4.3 h
- iv DNAUC(0–inf) ([6]; iv 2 mg/kg): 221.0 ng·h/mL
- po DNAUC(0–inf) ([6]; po 10 mg/kg): 32.8 ng·h/mL
- po DNCmax ([6]; po 10 mg/kg): 4.5 ng/mL
- Microsomal stability @ 30 min [8]: 59%
- IC50 [9]: 11.1 nM
- IC50 [5]: 14.2 nM
